Assay results from ChEMBL document CHEMBL3745645, “Synthesis, in vitro antitumor activity, dihydrofolate reductase inhibition, DNA intercalation and structure-activity relationship studies of 1,3,5-triazine analogues” (Bioorg Med Chem Lett, 2016).
Activity calls are given as the source filed them. The rule behind the calls is not given here.

Columns and labels:
Format in all cases: functional
[1] = test system: K562; assay: Cytotoxicity against human K562 cells at 10 uM after 48 hrs by SRB assay; details: K562, 48 h, read-out: GI
[2] = test system: BT-549; assay: (§1) Cytotoxicity against human BT549 cells at 10 uM after 48 hrs by SRB assay
[3] = test system: HL-60(TB); assay: Cytotoxicity against human HL-60(TB) cells at 10 uM after 48 hrs by SRB assay
[4] = test system: SF-295; assay: (§2) Cytotoxicity against human SF295 cells at 10 uM after 48 hrs by SRB assay
[5] = Cytotoxicity against human PC3 cells after 48 hrs by SRB assay; details: PC-3, 48 h; for GI50 / TGI: pooled result: one value given for 2 cell lines, strains, targets or settings
[6] = test system: MDA-MB-435; assay: Cytotoxicity against human MDA-MB-435 cells at 10 uM after 48 hrs by SRB assay; details: for inhibition of growth at 10 µM: MDA-MB-435, 48 h, read-out: GI
[7] = test system: UACC-257; assay: (§3) Cytotoxicity against human UACC257 cells at 10 uM after 48 hrs by SRB assay
[8] = Cytotoxicity against human IGROV1 cells after 48 hrs by SRB assay; details: IGROV-1, 48 h, pooled result: one value given for 7 cell lines, strains, targets or settings
[9] = test system: HCT-116; assay: Cytotoxicity against human HCT116 cells at 10 uM after 48 hrs by SRB assay
[10] = test system: TK-10; assay: (§4) Cytotoxicity against human TK10 cells at 10 uM after 48 hrs by SRB assay
[11] = test system: NCI-H226; assay: Cytotoxicity against human NCI-H226 cells at 10 uM after 48 hrs by SRB assay; details: for inhibition of growth at 10 µM: NCI-H226, 48 h, read-out: GI
[12] = test system: RPMI-8226; assay: Cytotoxicity against human RPMI8226 cells at 10 uM after 48 hrs by SRB assay
[13] = Cytotoxicity against human SW620 cells at 10 uM after 48 hrs by SRB assay; details: SW-620, 48 h, read-out: GI
[14] = Cytotoxicity against human COLO205 cells after 48 hrs by SRB assay; details: COLO 205, 48 h, pooled result: one value given for 7 cell lines, strains, targets or settings
[15] = test system: SK-MEL-28; assay: Cytotoxicity against human SK-MEL-28 cells at 10 uM after 48 hrs by SRB assay
[16] = Cytotoxicity against human IGROV1 cells at 10 uM after 48 hrs by SRB assay; details: IGROV-1, 48 h, read-out: GI
[17] = test system: MDA-MB-468; assay: Cytotoxicity against human MDA-MB-468 cells at 10 uM after 48 hrs by SRB assay
[18] = Cytotoxicity against human LOXIMVI cells after 48 hrs by SRB assay; details: LOX IMVI, pooled result: one value given for 9 cell lines, strains, targets or settings
[19] = Cytotoxicity against human Caki1 cells at 10 uM after 48 hrs by SRB assay; details: CAKI-1, 48 h, read-out: GI
[20] = test system: HCC 2998; assay: (§5) Cytotoxicity against human HCC2998 cells at 10 uM after 48 hrs by SRB assay
[21] = Cytotoxicity against human NCI-ADR-RES cells at 10 uM after 48 hrs by SRB assay; details: read-out: GI
[22] = test system: UO-31; assay: Cytotoxicity against human UO31 cells at 10 uM after 48 hrs by SRB assay
[23] = test system: HT-29; assay: Cytotoxicity against human HT-29 cells at 10 uM after 48 hrs by SRB assay
[24] = test system: UACC-62; assay: Cytotoxicity against human UACC62 cells at 10 uM after 48 hrs by SRB assay
[25] = Cytotoxicity against human OVCAR8 cells at 10 uM after 48 hrs by SRB assay; details: OVCAR-8, 48 h, read-out: GI
[26] = test system: OVCAR-4; assay: (§6) Cytotoxicity against human OVCAR4 cells at 10 uM after 48 hrs by SRB assay
[27] = test system: SF-539; assay: Cytotoxicity against human SF539 cells at 10 uM after 48 hrs by SRB assay
[28] = test system: MDA-MB-231; assay: Cytotoxicity against human MDA-MB-231 cells at 10 uM after 48 hrs by SRB assay
[29] = Cytotoxicity against human PC3 cells at 10 uM after 48 hrs by SRB assay; details: PC-3, 48 h, read-out: GI
[30] = test system: HCT-15; assay: (§7) Cytotoxicity against human HCT15 cells at 10 uM after 48 hrs by SRB assay
[31] = test system: NCI-H460; assay: Cytotoxicity against human NCI-H460 cells at 10 uM after 48 hrs by SRB assay; details: for inhibition of growth at 10 µM: NCI-H460, 48 h, read-out: GI
[32] = test system: CCRF-CEM; assay: Cytotoxicity against human CCRF-CEM cells after 48 hrs by SRB assay; details: for GI50 / TGI: pooled result: one value given for 6 cell lines, strains, targets or settings
[33] = as §1; details: BT-549, 48 h, read-out: GI
[34] = as §2; details: SF-295, 48 h, read-out: GI
[35] = as §3; details: UACC-257, 48 h, read-out: GI
[36] = as §4; details: TK-10, 48 h, read-out: GI
[37] = Cytotoxicity against human LOXIMVI cells at 10 uM after 48 hrs by SRB assay; details: LOX IMVI, read-out: GI
[38] = Cytotoxicity against human OVCAR3 cells at 10 uM after 48 hrs by SRB assay; details: OVCAR-3, 48 h, read-out: GI
[39] = Cytotoxicity against human COLO205 cells at 10 uM after 48 hrs by SRB assay; details: COLO 205, 48 h, read-out: GI
[40] = Cytotoxicity against human SNB75 cells at 10 uM after 48 hrs by SRB assay; details: SNB-75, 48 h, read-out: GI
[41] = as §5; details: HCC 2998, 48 h, read-out: GI
[42] = test system: MOLT-4; assay: Cytotoxicity against human MOLT4 cells at 10 uM after 48 hrs by SRB assay
[43] = as §6; details: OVCAR-4, 48 h, read-out: GI
[44] = as §7; details: HCT-15, 48 h, read-out: GI
[45] = Cytotoxicity against human RXF393 cells at 10 uM after 48 hrs by SRB assay; details: RXF 393, 48 h, read-out: GI
[46] = test system: OVCAR-5; assay: Cytotoxicity against human OVCAR5 cells at 10 uM after 48 hrs by SRB assay

Cc1nc2cc(Nc3nc(Nc4ccc(F)cc4)nc(N4CCN(C)CC4)n3)ccc2n1Cc1ccccc1
inhibition of growth at 10 µM [1]: 99.6% | growth inhibition (GI) [2]: Active | growth inhibition (GI) [3]: Active | growth inhibition (GI) [4]: Active | LC50 [5]: 20.5 µM | GI50 [5]: 1890 nM | TGI [5]: 4.38 µM | inhibition of growth at 10 µM [6]: 99.8% | growth inhibition (GI) [7]: Active | GI50 [8]: 2160 nM | LC50 (concentration killing 50% of cells) [8]: 15.5 µM | TGI [8]: 5.25 µM | growth inhibition (GI) [9]: Active | growth inhibition (GI) [10]: Active | inhibition of growth at 10 µM [11]: 35% | growth inhibition (GI) [12]: Active | inhibition of growth at 10 µM [13]: 84.4% | GI50 [14]: 1660 nM | LC50 [14]: 7.15 µM | TGI [14]: 3.44 µM | growth inhibition (GI) [15]: Active | inhibition of growth at 10 µM [16]: 75.4% | growth inhibition (GI) [17]: Active | GI50 [18]: 1810 nM | LC50 [18]: 6.27 µM | TGI [18]: 3.37 µM | inhibition of growth at 10 µM [19]: 81.4% | growth inhibition (GI) [20]: Active | inhibition of growth at 10 µM [21]: 56.9% | growth inhibition (GI) [22]: Active | growth inhibition (GI) [23]: Active | growth inhibition (GI) [24]: Active | inhibition of growth at 10 µM [25]: 99.4% | growth inhibition (GI) [26]: Active | growth inhibition (GI) [27]: Active | growth inhibition (GI) [28]: Active | inhibition of growth at 10 µM [29]: 80.3% | growth inhibition (GI) [30]: Active | inhibition of growth at 10 µM [31]: 96.6% | LC50 [32]: 8.47 µM | GI50 [32]: 1430 nM | TGI [32]: 4.04 µM

COc1ccc(-c2nc(Nc3ccc(F)cc3)nc(Nc3ccc4c(c3)nc(C)n4Cc3ccccc3)n2)cc1
inhibition of growth at 10 µM [1]: 83.4% | inhibition of growth at 10 µM [33]: 29.3% | growth inhibition (GI) [3]: Active | inhibition of growth at 10 µM [34]: 51% | LC50 [5]: > 100 µM | GI50 [5]: 5350 nM | TGI [5]: > 100 µM | inhibition of growth at 10 µM [6]: 65.9% | inhibition of growth at 10 µM [35]: 56.2% | GI50 [8]: 4790 nM | LC50 (concentration killing 50% of cells) [8]: > 100 µM | TGI [8]: 40.5 µM | inhibition of growth at 10 µM [36]: 25.1% | inhibition of growth at 10 µM [37]: 61.1% | inhibition of growth at 10 µM [11]: 33.4% | growth inhibition (GI) [12]: Active | inhibition of growth at 10 µM [13]: 54.3% | inhibition of growth at 10 µM [38]: 49.5% | GI50 [14]: 3520 nM | LC50 [14]: 18.2 µM | TGI [14]: 14.4 µM | inhibition of growth at 10 µM ([15]; SK-MEL-28, 48 h, read-out: GI): 43.5% | inhibition of growth at 10 µM [16]: 63.6% | inhibition of growth at 10 µM ([17]; MDA-MB-468, 48 h, read-out: GI): 71.6% | inhibition of growth at 10 µM [39]: 71.8% | GI50 [18]: 4430 nM | LC50 [18]: > 100 µM | TGI [18]: 31.2 µM | inhibition of growth at 10 µM [40]: 32% | inhibition of growth at 10 µM [19]: 16.8% | inhibition of growth at 10 µM [41]: 54.5% | inhibition of growth at 10 µM [21]: 73.4% | inhibition of growth at 10 µM ([23]; HT-29, 48 h, read-out: GI): 91.1% | growth inhibition (GI) [42]: Active | inhibition of growth at 10 µM [25]: 82.1% | inhibition of growth at 10 µM [43]: 57.4% | inhibition of growth at 10 µM ([28]; MDA-MB-231, 48 h, read-out: GI): 68.8% | inhibition of growth at 10 µM [44]: 66.6% | inhibition of growth at 10 µM [31]: 69.7% | LC50 [32]: > 100 µM | GI50 [32]: 3370 nM | TGI [32]: 67.9 µM | inhibition of growth at 10 µM [45]: 64.3%

Cc1nc2cc(Nc3nc(Nc4ccc(F)cc4)nc(N4CCCC4)n3)ccc2n1Cc1ccccc1
inhibition of growth at 10 µM [1]: 100% | growth inhibition (GI) [46]: Active | growth inhibition (GI) [2]: Active | growth inhibition (GI) [3]: Active | growth inhibition (GI) [4]: Active | LC50 [5]: 6 µM | GI50 [5]: 1820 nM | TGI [5]: 3.82 µM | growth inhibition (GI) [6]: Active | growth inhibition (GI) [7]: Active | GI50 [8]: 1900 nM | LC50 (concentration killing 50% of cells) [8]: 11 µM | TGI [8]: 4.01 µM | growth inhibition (GI) [9]: Active | growth inhibition (GI) [10]: Active | growth inhibition (GI) [11]: Active | growth inhibition (GI) [12]: Active | GI50 [14]: 1810 nM | LC50 [14]: 6.93 µM | TGI [14]: 3.54 µM | growth inhibition (GI) [15]: Active | growth inhibition (GI) [17]: Active | GI50 [18]: 1810 nM | LC50 [18]: 13.7 µM | TGI [18]: 3.68 µM | growth inhibition (GI) [20]: Active | growth inhibition (GI) [22]: Active | growth inhibition (GI) [23]: Active | growth inhibition (GI) [42]: Active | growth inhibition (GI) [24]: Active | inhibition of growth at 10 µM [43]: 95.2% | growth inhibition (GI) [27]: Active | growth inhibition (GI) [28]: Active | growth inhibition (GI) [30]: Active | growth inhibition (GI) [31]: Active | LC50 [32]: > 100 µM | GI50 [32]: 2540 nM | TGI [32]: 5.28 µM
